These results are taken from paper PMC6240092, “NUAK2 is a critical YAP target in liver cancer” (Nature Communications, 2018).

The IC50 is the concentration at which inhibition is half-maximal. Higher therefore signals a need for much substance.

The target in the assay is T1, NUAK2 (Homo sapiens, UniProt Q9H093).
T1 construct: N-terminal GST-tagged NUAK2, expressed in HEK-293 cells and purified by glutathione-sepharose
T1 sequence (Q9H093 1-628): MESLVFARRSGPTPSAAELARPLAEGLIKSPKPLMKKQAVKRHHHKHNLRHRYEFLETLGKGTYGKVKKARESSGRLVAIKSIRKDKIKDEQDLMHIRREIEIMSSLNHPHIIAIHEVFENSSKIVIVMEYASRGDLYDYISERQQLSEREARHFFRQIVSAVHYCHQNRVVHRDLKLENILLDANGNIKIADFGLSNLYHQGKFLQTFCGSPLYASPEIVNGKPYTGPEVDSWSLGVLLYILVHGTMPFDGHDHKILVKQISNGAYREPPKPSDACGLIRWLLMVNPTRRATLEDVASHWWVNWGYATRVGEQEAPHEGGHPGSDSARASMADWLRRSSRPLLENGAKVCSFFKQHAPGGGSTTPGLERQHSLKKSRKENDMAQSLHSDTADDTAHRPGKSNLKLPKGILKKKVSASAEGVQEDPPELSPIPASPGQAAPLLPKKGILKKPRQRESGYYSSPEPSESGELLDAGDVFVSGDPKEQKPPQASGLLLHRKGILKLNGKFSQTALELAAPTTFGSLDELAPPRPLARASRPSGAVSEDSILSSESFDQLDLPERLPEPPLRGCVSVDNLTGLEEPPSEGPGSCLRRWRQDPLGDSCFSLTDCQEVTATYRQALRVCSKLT
The assay is described as follows: radiometric peptide kinase assay with [γ-32P]ATP ([…]) and Sakamototide ([…]). It is filed as biochemical.

The structures appear in SMILES notation.

`CCC(=O)Nc1cccc(Oc2nc(Nc3ccc(N4CCN(C)CC4)cc3OC)ncc2I)c1` [HTH-02-006] registered an IC50 of 126 nM.
